Experimental data taken from ChEMBL document CHEMBL3792344, “Synthesis, molecular properties prediction and anticancer, antioxidant evaluation of new edaravone derivatives” (Bioorg Med Chem Lett, 2016).
Values after ≈ are worked out from the molar mass of the structure shown.

Tests used:
[1] = Cytotoxicity against human PC3 cells assessed as inhibition of cell viability at 25 uM after 48 hrs by MTT assay relative to control; assay type: functional; conditions: PC-3, 48 h
[2] = Antioxidant activity assessed as DPPH free radical scavenging activity incubated for 30 mins in dark condition by spectrophotometric method; assay type: physicochemical
[3] = Cytotoxicity against HEK293T cells assessed as inhibition of cell viability at 25 uM after 48 hrs by MTT assay relative to control; assay type: cell-based, HEK-293T; conditions: human, read-out: INH
[4] = test system: A549; test: Cytotoxicity against human A549 cells assessed as inhibition of cell viability at 25 uM after 48 hrs by MTT assay relative to control; assay type: functional; conditions: A549, 48 h
[5] = Cytotoxicity against HEK293T cells assessed as inhibition of cell viability after 48 hrs by MTT assay; assay type: cell-based; conditions: Homo sapiens, HEK-293T
[6] = Cytotoxicity against human PC3 cells assessed as inhibition of cell viability after 48 hrs by MTT assay; assay type: functional, cell-based; conditions: PC-3, 48 h

Structure (SMILES)	IC50 [2] [µg/mL]	inhibition at 25 µM [1] [%]	cytotoxicity at 48 h, 25 µM [3] [%]	inhibition at 25 µM [4] [%]	IC50 [5] [nM]	IC50 [6] [nM]
COc1c(Br)c(C)nn1-c1ccccc1	36.96 (≈ 138 µM)	6.38	5.96	30.8		
COc1cccc2c1C(=O)c1c(O)c3c(c(O)c1C2=O)C[C@@](O)(C(=O)CO)C[C@@H]3O[C@H]1C[C@H](N)[C@H](O)[C@H](C)O1 [DOXORUBICIN]					1200	2100
COc1c(C(=O)NC(C)c2ccccc2)c(C)nn1-c1ccccc1 (stereo not drawn)	26.98 (≈ 80.4 µM)	29.7	31.8	52.7		
COc1c(C(=O)NCc2ccccc2)c(C)nn1-c1ccccc1	23.63 (≈ 73.5 µM)	8.71	22.2	46.7		
COc1ccc(CNC(=O)c2c(C)nn(-c3ccccc3)c2OC)cc1	28.42 (≈ 80.9 µM)	34.6	44.3	60.9		
O=C1O[C@H]([C@@H](O)CO)C(O)=C1O [ASCORBIC ACID]	8.09 (≈ 45.9 µM)					
COc1c(C(=O)O)c(C)nn1-c1ccccc1	16.27 (≈ 70.1 µM)	3.19	12.1	22.1		
COc1cc(C)nn1-c1ccccc1	49.18 (≈ 261 µM)	5.91	23	55.8		
CC1=NN(c2ccccc2)C(=O)C1 [EDARAVONE]	54.4 (≈ 312 µM)	1.43	2.4	19.2		
COc1ccc(-c2c(C)nn(-c3ccccc3)c2OC)c(OC)c1	38.99 (≈ 120 µM)	33	48.1	74.7		

The next lines start with results.

IC50 [2] [µg/mL]	Structure (SMILES)	inhibition at 25 µM [1] [%]	cytotoxicity at 48 h, 25 µM [3] [%]	inhibition at 25 µM [4] [%]	IC50 [5] [nM]	IC50 [6] [nM]
18.6 (≈ 66.8 µM)	COc1c(-c2ccc(C)cc2)c(C)nn1-c1ccccc1	18.5	19.7	44		
32.2 (≈ 122 µM)	COc1c(-c2ccccc2)c(C)nn1-c1ccccc1	16.2	28.2	65.7		
50.67 (≈ 158 µM)	COc1c(-c2csc3ccccc23)c(C)nn1-c1ccccc1	32.4	55	73.5		
37.03 (≈ 132 µM)	COc1c(-c2ccc(O)cc2)c(C)nn1-c1ccccc1	4.9	5.58	55.9		
24.98 (≈ 84.9 µM)	COc1ccc(-c2c(C)nn(-c3ccccc3)c2OC)cc1	24.3	46.3	70.7		
35.97 (≈ 127 µM)	COc1c(-c2ccc(F)cc2)c(C)nn1-c1ccccc1	46.3	40.9	63.9		
30.08 (≈ 111 µM)	COc1c(-c2ccsc2)c(C)nn1-c1ccccc1	36.6	22.2	40		
20.05 (≈ 65 µM)	COCc1ccccc1-c1c(C)nn(-c2ccccc2)c1OC	36	56.5	80.5		
26.4 (≈ 94.8 µM)	COc1c(-c2cccc(C)c2)c(C)nn1-c1ccccc1	59.3	70.5	85.9		
53.56 (≈ 170 µM)	COc1c(-c2ccc3ccccc3c2)c(C)nn1-c1ccccc1	27.6	53.6	71		
41.98 (≈ 145 µM)	COc1c(-c2ccc(C#N)cc2)c(C)nn1-c1ccccc1	30.2	57.8	54.7		
16.07 (≈ 45.2 µM)	COc1c(C(=O)NCc2ccc(Cl)cc2)c(C)nn1-c1ccccc1	45.8	49.4	87		
